This data set is described as follows: gradient 5% acetonitrile 3 min, to 50% in 2 min, to 85% in 15 min, held 3 min, 100 µL/min. The note with it: column: Zorbax Extend-C18 2.1 x 50 mm; eluents: water / acetonitrile, 0.1% formic acid. Put shortly:
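The system's dead and dwell volumes were 40 μL and 900 μL, with a Zorbax Extend-C18 column (2.1 × 50 mm, 1.8 μm) run at 100 μL/min in water and acetonitrile containing 0.1% formic acid each. Pure standards were analyzed in mixtures of ~100 molecules by HPLC–quadrupole time-of-flight mass spectrometry in positive and negative ionization mode. Retention time was assigned from computationally picked, manually inspected adduct peaks.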
Turning to `O=C(Cn1cnc2ccccc2c1=O)N1CCC(Cn2cccn2)CC1`, the RP-LC retention time was found to be 616 s.

Take `CC(=O)N1CCC(C(=O)N2CCCN(c3cc(-c4ccc(Cl)cc4)[nH]n3)CC2)CC1`: the RP-LC retention time turned out to be 648 s. The compound `COc1ccc(NC(=O)N2CCCC(C)(C(=O)NCc3ccccc3)C2)cc1` (centres undefined) showed an RP-LC retention time of 828 s. Compound `Cc1ccc(S(=O)(=O)N2CCC(CN3CCCC(C)C3)CC2)cc1Cl` (centres undefined) yielded an RP-LC retention time of 683 s. `COc1ccc(NC(=O)CN2C(=O)NC3(CCC(C)CC3)C2=O)c(OC)c1` (centres undefined) had an RP-LC retention time of 827 s. The same measure for `Cc1cc(C)cc(Nc2cc(C)n3c(=O)n(Cc4cc(=O)n5ccccc5n4)nc3n2)c1`: 993 s; for `O=C(Nc1nc2c(s1)CN(S(=O)(=O)C1CC1)CC2)c1cnn(-c2ccccc2)n1`: 855 s; for `COc1ccc(CCC(=O)N2CCC3(C2)C(=O)N(C)c2ccccc23)cc1` (centres undefined): 872 s.

Compound `COc1cc(-c2ccc(NC(=O)NC3CC3)c(OC)c2)ccc1NC(=O)NC1CC1` gave an RP-LC retention time of 824 s. Turning to `Cc1cc(C)c(-c2csc(NC(=O)c3ccccc3[N+](=O)[O-])n2)c(C)c1`, the RP-LC retention time came out at 1070 s.

Take `COC(=O)c1sc2ncccc2c1NC(=O)c1cccc(C)c1`: the RP-LC retention time is 972 s. Regarding `Cc1nc(-c2ccc(-c3noc(-c4ccnn4C)n3)cc2)cs1`, the RP-LC retention time worked out at 1060 s.

`Cc1ccc2cc(CCC(=O)NCc3nc4ccccc4n3C)c(=O)[nH]c2c1` displayed an RP-LC retention time of 617 s. The compound `COc1ccc(-n2nnc(-c3nsc(Nc4cccc(Cl)c4)n3)c2C)cc1` displayed an RP-LC retention time of 1080 s. Turning to `NC(=O)C1CCN(C(=O)CSc2nnc(-c3sc4ncccc4c3N)n2C2CC2)CC1`, the RP-LC retention time turned out to be 606 s. In turn, `COc1ccc(NC(=O)c2cnc3c(c2)c(=O)n(C)c(=O)n3-c2ccc(C)cc2)c(OC)c1` showed an RP-LC retention time of 913 s. Compound `CCC(C)NC(=O)Cn1c(=O)c2cnc(-c3ccc(C)cc3)nc2n(C)c1=O` (centres undefined) showed an RP-LC retention time of 920 s. On to `O=C1CC(C(=O)N2CCc3ccccc32)CN1CCc1c[nH]c2ccc(F)cc12` (centres undefined), for which the RP-LC retention time amounted to 1270 s.

In the case of `CCCCn1cc(S(=O)(=O)Nc2cccc(OC)c2)c2cccnc21`, the RP-LC retention time was determined as 912 s. The same measure for `O=C(NCc1ccsc1)C(=O)Nc1cccnc1`: 566 s; for `O=C(COc1ccc(F)cc1)N1CCN(c2nc(CN3CCCCC3)cs2)CC1`: 655 s. In turn, `O=C(NCCc1csc(-c2ccc(F)cc2)n1)c1cccs1` gave an RP-LC retention time of 913 s. Take `COCCOC1CCC12CCN(C(=O)c1ocnc1C)CC2` (centres undefined): the RP-LC retention time is 686 s. In turn, `CCOc1ccccc1NC(=O)Cn1nc2c(N3CCSCC3)nccn2c1=O` displayed an RP-LC retention time of 853 s. With `COc1ccc(CNC(=O)C2CCN(S(=O)(=O)c3ccc4c(c3)NC(=O)C(C)O4)CC2)cc1` (centres undefined) the figure was 788 s; with `CCCOc1nc2ccccc2nc1N1CCCC(C(=O)Nc2cc(C)ccc2C)C1` (centres undefined), 1340 s.

As to `Cn1nc(-c2nc(Cc3ccccc3)no2)c2c1CCN(C(=O)C1(c3ccccc3)CC1)C2`, the RP-LC retention time was found to be 962 s. In turn, `COCC(=O)N(C1CCOCC1)C1CCN(S(=O)(=O)c2cccnc2)CC1` returned an RP-LC retention time of 641 s. The compound `Cc1ccnc(NC(=O)NCCCSc2nccc(C)n2)n1` displayed an RP-LC retention time of 643 s. The compound `COc1cc(CCC(=O)N2C[C@@H](C(N)=O)[C@H](c3nc(C)no3)C2)on1` had an RP-LC retention time of 600 s.

Regarding `Cc1ccc(-n2c(N3CCCC(C(=O)Nc4ccc(F)cc4)C3)nc3ccsc3c2=O)cc1` (centres undefined), the RP-LC retention time turned out to be 959 s. On to `CCn1nccc1-c1cccc(-c2noc(-c3ccnc(Cl)c3)n2)c1`, for which the RP-LC retention time was determined as 1160 s. On to `CCCC(=O)Nc1ccc2c(c1)CN(C(=O)c1ccc(C#N)cc1)C(C(=O)N(C)C)C2` (centres undefined), for which the RP-LC retention time was determined as 681 s. As for `CCOc1ccc2nc(NC(=O)C3CCN(c4ccc(-n5cccn5)nn4)CC3)sc2c1`, the RP-LC retention time was 780 s. In turn, `Cc1ccc(-n2c(=O)n(CC(=O)Nc3ccccc3C)c3cccnc32)cc1` yielded an RP-LC retention time of 865 s. As to `CCc1cccc(NC(=O)c2cc3n(n2)CC(C)(C(=O)NC2CCCC2)N(CC)C3=O)c1` (centres undefined), the RP-LC retention time turned out to be 605 s.

In turn, `COc1ccc(N2CCN(c3cc(SCC(=O)Nc4cccc(C#N)c4)ncn3)CC2)cc1` yielded an RP-LC retention time of 895 s. With `COc1ccc(OC)c(NC(=O)Cn2c(C)cc(-c3nnc(C4CCC4)o3)c2C)c1` the figure was 924 s; with `Cc1ccc2ncn(C3CCN(S(=O)(=O)c4cc(F)cc(F)c4)CC3)c(=O)c2c1`, 932 s. Compound `Cc1nc(OCC(=O)NCc2ccc3c(c2)OCO3)c2ccccc2n1` returned an RP-LC retention time of 698 s. `Cc1ccc2c(c1)N(Cc1ccc(F)cc1)N=C(C(=O)N1CCC(C)CC1)S2(=O)=O` came in with an RP-LC retention time of 1060 s.

`O=C(C1=CN(c2cccc(Cl)c2)c2ccccc2S1(=O)=O)N1CCOCC1` yielded an RP-LC retention time of 782 s. For `CS(=O)(=O)N1CCC(CNC(=O)NC(c2ccccc2)c2ccccc2)CC1`, the RP-LC retention time is 732 s.

In the case of `CCOc1ccccc1NC(=O)N1CCC2(CC1)NC(=O)c1ccccc1O2`, the RP-LC retention time was determined as 810 s. As for `O=C(c1cc2ccccc2o1)N1CCC(CNS(=O)(=O)Cc2ccccc2Cl)CC1`, the RP-LC retention time worked out at 880 s. For `COCCCNC(=O)C1(C)Cn2nc(-c3ccccc3)cc2C(=O)N1Cc1cc(OC)ccc1OC` (centres undefined), the RP-LC retention time was determined as 903 s. Compound `O=c1n(Cc2ccc3c(c2)OCO3)nc2c(S(=O)(=O)N3CCCCCC3)cccn12` had an RP-LC retention time of 921 s. In turn, `CN1CCN(CCNC(=O)c2cc(-c3ccccc3)cn2C)CC1` yielded an RP-LC retention time of 600 s. With `C#CCOc1ccc2c(c1)c(-c1ccc(C(C)C)cc1)nc(=O)n2C(C)C` the figure was 1160 s; with `COC(=O)C1=C(CN2CCSCC2)NC(=O)NC1c1ccccc1Cl` (centres undefined), 621 s; with `Cc1ccc(NC(=O)N2CCC(CCNC(=O)C3(c4ccccc4)CC3)CC2)cc1`, 923 s. `O=C(NC1CCCN(c2cc(-c3ccncc3)[nH]n2)C1)c1cccc(F)c1` (centres undefined) displayed an RP-LC retention time of 593 s.

On to `Cc1cc(S(=O)(=O)N2CCC(n3c(-c4ccco4)nc4cccnc43)C2)ccc1F` (centres undefined), for which the RP-LC retention time was 827 s.

The compound `Cc1ccc(S(=O)(=O)Nc2ccc(-c3cn4cccc(C)c4n3)cc2)c(C)c1` registered an RP-LC retention time of 688 s. `O=C1Cc2c(-c3ccccc3)cc(-c3cccc(Cl)c3)nc2-c2ccccc2N1` came in with an RP-LC retention time of 1260 s. In the case of `Cn1cnc2ccc(-c3noc(Cc4ccccc4Cl)n3)cc21`, the RP-LC retention time was found to be 738 s. The compound `CCC(=O)Nc1ccc2c(c1)CCC(=O)N2CCOC` showed an RP-LC retention time of 618 s. With `O=C(Cn1cc(S(=O)(=O)c2ccccc2)c2ccccc21)NCc1ccc2c(c1)OCO2`, the RP-LC retention time amounted to 829 s. The compound `O=C(Nc1ccc2c(c1)OCCO2)C1CCCN(C(=O)c2cc(-c3ccncc3)n[nH]2)C1` (centres undefined) gave an RP-LC retention time of 584 s. In the case of `CNC(=O)N1CCc2c(c(-c3nc(-c4cccc(F)c4)no3)nn2C)C1`, the RP-LC retention time is 738 s. Consider `COc1ccc(CNC(=O)c2cn(C)c3ncccc23)cc1`, for which the RP-LC retention time was 711 s. Turning to `O=C(Nc1ccc(F)c(F)c1)C(=O)c1ccc[nH]1`, the RP-LC retention time came out at 899 s. Consider `CC(C)C(=O)N1CCC(N2C[C@H](O)C[C@H]2C(=O)NC2CCCCC2)CC1`, for which the RP-LC retention time is 603 s. With `O=C(Cn1cc(-c2ccccc2)c(N2CCOCC2)n1)N1CCN(c2ccccc2F)CC1`, the RP-LC retention time stood at 978 s.

`CN(C)c1nc2ncn3c(=O)n(CC(=O)NCc4ccccc4Cl)nc3c2s1` came in with an RP-LC retention time of 686 s. `COc1ccc(Cl)cc1S(=O)(=O)N1CCC(n2cnnc2C)CC1` came in with an RP-LC retention time of 684 s. Compound `CCc1ccc(NC(=O)NC2CCN(c3ccc(F)c(C)c3)C2=O)cc1` (centres undefined) displayed an RP-LC retention time of 905 s. Compound `Cc1ccc(Nc2cc(N3CCC(C(=O)N4CCCC4)CC3)ncn2)cc1` had an RP-LC retention time of 632 s.

For the compound `O=C(NC1CCN(c2cc(-c3cccnc3)[nH]n2)CC1)c1ccc(F)c(Cl)c1`, the RP-LC retention time was 643 s. The same measure for `CCCn1cc(S(=O)(=O)Nc2cccc(OC)c2)c2cccnc21`: 840 s; for `O=C(c1ccc(-c2ccsc2)nc1)N1CCCC1`: 716 s; for `O=C(CN1C(=O)c2ccccc2C1=O)OCc1nc2ccccc2s1`: 840 s. On to `Cn1nc(C(=O)N2CCCN(c3cc(-c4ccc(Cl)cc4)[nH]n3)CC2)c2ccccc21`, for which the RP-LC retention time was found to be 805 s. The compound `O=C(Cn1c(=O)oc2ccccc21)Nc1nc(-c2ccc(Cl)cc2)cs1` gave an RP-LC retention time of 1020 s. In turn, `Cc1ccc2c(Nc3ccc(C)c(C)c3)c(C(=O)N3CCC(C)CC3)cnc2n1` showed an RP-LC retention time of 681 s. In turn, `CC(C)CCNC(=O)C1(C)CCc2ccccc2C(=O)N1CCc1c[nH]c2ccccc12` (centres undefined) came in with an RP-LC retention time of 950 s. Compound `CCNc1nc(-c2ccccc2F)no1` displayed an RP-LC retention time of 761 s. On to `CS(=O)(=O)N1CCn2nc(-c3cccs3)cc21`, for which the RP-LC retention time worked out at 681 s. On to `N#Cc1cccc(-c2cn3c(n2)N(C(=O)c2cccs2)CCC3)c1`, for which the RP-LC retention time stood at 684 s.

Source of the values: the METLIN SMRT retention time set (Domingo-Almenara et al. 2019).
